Tests used:
Design in all cases: species or system athymic female NCR-Nu Mice
[1] = system: MCF-7(ER+) breast tumor xenografts; assay: In vivo biolocalization with gamma detecting probe, tumor/background ratio, MCF-7 (ER+) tumor; settings: for Tumor/Background Ratio (Tu/Bkg): MCF-7 tumor, foreleg background, n = 5
Method: (§1) In vivo biolocalization of 11β-ethyl-17α-(Z)-[^125 I](iodovinyl)estra-3,17β-diol (5) and a control compound 16α-[^125 I](iodovinyl)-3,17β-estradiol was determined in athymic female NCR-Nu Mice bearing subcutaneous MCF-7(ER+) breast tumor xenografts and MDA-MB-231 (ER-) breast tumor xenografts. The mice were at least 5 weeks old prior to injection into the right-hand flank with […] of MCF-7 breast carcinoma cells ([…]). One day prior to this procedure, the mice were implanted subcutaneously with a 1.7 mg estradiol pellet in the scapular region. Four to six weeks post-injection of the MCF-7 cells the estradiol pellet was removed and the mice inoculated in the left hind flank with 75 μL NDA-MB-231 breast tumor cells ([…]). Seven to ten days prior to injection of the test compounds, an estradiol pellet was again implanted in the scapular region. One to two days prior to injection of the test compounds, the estradiol pellet was removed, and 5 mice arbitrarily assigned to each test group.
(§2) The mice were each injected via tail vein with between 3 ([…]) and […] ([…]) 125 iodine in approximately […] of phosphate-buffered saline. At various time intervals after injection of the test compounds, each group of mice was anesthetized with methoxyflurane in order to measure the radioactivity over the ER+ and ER- tumors and the front leg for use as a background and the thoraxic area which served as a blood pool control using a gamma detecting probe (RIGS ^TM Model 1001 control unit, Neoprobe Corporation, Columbus, Ohio). Three 20 to 60 second counts were recorded at each area measured at each time point.
(§3) ^c Tu/Bkg = Mean(1-5) of (mean tumor countsn - mean foreleg
(§4) background countsn)/mean foreleg background

[2] = system: MCF-7 tumors located intraperitoneally; assay: In vivo localization (biodistribution) in athymic female nude mice bearing intraperitoneal MCF-7 tumors; settings: for Percent Injected Dose/Gram, blood / Percent Injected Dose/Gram, fat / Percent Injected Dose/Gram, kidney / Percent Injected Dose/Gram, liver / Percent Injected Dose/Gram, muscle / Percent Injected Dose/Gram, spleen / Percent Injected Dose/Gram, tumor / Percent Injected Dose/Gram, uteri: tail vein, intraperitoneal MCF-7, mean, n = 5
Method: (§5) In vivo localization of 11β-ethyl-17α-(Z)-[^125 I](iodovinyl)estra-3,17β-diol (5) and a control compound 16α-[^125 I]iodovinyl-3,17β-estradiol (commercially available from DuPont New England Nuclear, MA) was determined in athymic female NCR-Nu Mice (purchased from Simonsen Laboratories, Gilroy, Calif.) bearing subcutaneous MCF-7(ER+) breast tumor xenografts. Prior to injection of the compounds, the mice were each implanted with fragments of MCF-7 breast tumor (approximately 2 cubic millimeters) in the subcutis of the left flank. At approximately the same time, a 1.7 mg estradiol pellet (Innovative Research of America, Toledo, Ohio) was implanted in the scapular region. The tumors were allowed to grow until they reached between 50 and 200 mg by visual inspection (approximately four to five weeks) prior to injection of the test compounds. One day prior to injection of the test compounds, the estradiol pellet was removed.
(§6) The mice were each injected via tail vein with between 3 (1.1×10^5 Bq) and 6 μCi ([…]) ^125 I in approximately 50 μL of phosphate buffered saline. The mice were sacrificed at various time intervals. After exsanguination, the selected organ/tissue were excised, weighed and radioactivity measured in a gamma counter. The counts per minute (cpm) of 125I in each tissue was determined and expressed as cpm per gram of tissue per injected dose multiplied by 100 (percent injected dose/gram).
The procedure of Example 3 was followed except each mouse was inoculated intraperitoneally with MCF-7 breast carcinoma cell line (7.5×10^6 cell/50 μL) rather than implanted subcutaneously with MCF-7 breast tumor. One day prior to this procedure, a 1.7 mg estradiol pellet was implanted subcutaneously in the scapular region. The tumor cells were allowed to form solid tumor nodules for 4 to 6 weeks prior to injection of the test compounds.

[3] = system: MCF-7(ER+) breast tumor xenografts; assay: In vivo localization (biodistribution) in athymic female nude mice bearing subcutaneous MCF-7 tumor xenografts; settings: for Percent Injected Dose/Gram, blood / Percent Injected Dose/Gram, fat / Percent Injected Dose/Gram, kidney / Percent Injected Dose/Gram, liver / Percent Injected Dose/Gram, muscle / Percent Injected Dose/Gram, spleen / Percent Injected Dose/Gram, tumor / Percent Injected Dose/Gram, uteri: tail vein, subcutaneous MCF-7, mean, n = 5
Method: as §5, §6

[4] = system: MDA-MB-231 (ER-) breast tumor xenografts; assay: In vivo biolocalization with gamma detecting probe, tumor/background ratio, MDA-MB-231 (ER-) tumor; settings: MDA-MB-231 tumor, foreleg background, n = 5
Method: as §1, §2, §3, §4

## C[C@]12CC[C@@H]3c4ccc(O)cc4CC[C@H]3[C@@H]1C[C@@H]([125I])[C@@H]2O [16α-Iodo-[^125 I]-3,17β-Estradiol]
[1]; 10-12 hours
  Tumor/Background Ratio (Tu/Bkg): 4.46 ± 1.44
[1]; 2 hours
  Tumor/Background Ratio (Tu/Bkg): 12.73
[1]; 6 hours
  Tumor/Background Ratio (Tu/Bkg): 9.58 ± 4.69
[1]; 24 hours
  Tumor/Background Ratio (Tu/Bkg): 1.13 ± 0.16
[1]; 48 hours
  Tumor/Background Ratio (Tu/Bkg): 0.13 ± 0.08
[1]; after 10 to 12 hours
  tumor to background ratios / localization at the tumor site (in words): not being maintained or localized at the tumor site
[1]; at 10 to 12 hours
  tumor to background ratios (in words): good tumor to background ratios
[2]; 48 hours post-injection, uteri and tumors, intraperitoneal MCF-7
  radioactivity in the uteri and tumors: no radioactivity defected
[2]; 10-12 hours
  Percent Injected Dose/Gram, blood: 0.50 Percent Injected Dose/Gram
  Percent Injected Dose/Gram, fat: 0.01 Percent Injected Dose/Gram
  Percent Injected Dose/Gram, kidney: 0.24 Percent Injected Dose/Gram
  Percent Injected Dose/Gram, liver: 0.84 Percent Injected Dose/Gram
  Percent Injected Dose/Gram, muscle: 0.00 Percent Injected Dose/Gram
  Percent Injected Dose/Gram, spleen: 0.15 Percent Injected Dose/Gram
  Percent Injected Dose/Gram, tumor: 0.40 Percent Injected Dose/Gram
  Percent Injected Dose/Gram, uteri: 0.45 Percent Injected Dose/Gram
[2]; 2 hours
  Percent Injected Dose/Gram, blood: 0.84 Percent Injected Dose/Gram
  Percent Injected Dose/Gram, fat: 0.92 Percent Injected Dose/Gram
  Percent Injected Dose/Gram, kidney: 0.83 Percent Injected Dose/Gram
  Percent Injected Dose/Gram, liver: 6.54 Percent Injected Dose/Gram
  Percent Injected Dose/Gram, muscle: 0.12 Percent Injected Dose/Gram
  Percent Injected Dose/Gram, spleen: 0.34 Percent Injected Dose/Gram
  Percent Injected Dose/Gram, tumor: 1.35 Percent Injected Dose/Gram
  Percent Injected Dose/Gram, uteri: 2.89 Percent Injected Dose/Gram
[2]; 6 hours
  Percent Injected Dose/Gram, blood: 0.74 Percent Injected Dose/Gram
  Percent Injected Dose/Gram, fat: 0.14 Percent Injected Dose/Gram
  Percent Injected Dose/Gram, kidney: 0.41 Percent Injected Dose/Gram
  Percent Injected Dose/Gram, liver: 5.37 Percent Injected Dose/Gram
  Percent Injected Dose/Gram, muscle: 0.07 Percent Injected Dose/Gram
  Percent Injected Dose/Gram, spleen: 0.36 Percent Injected Dose/Gram
  Percent Injected Dose/Gram, tumor: 0.75 Percent Injected Dose/Gram
  Percent Injected Dose/Gram, uteri: 1.09 Percent Injected Dose/Gram
[2]; 24 hours
  Percent Injected Dose/Gram, blood: 0.06 Percent Injected Dose/Gram
  Percent Injected Dose/Gram, fat: 0.00 Percent Injected Dose/Gram
  Percent Injected Dose/Gram, kidney: 0.03 Percent Injected Dose/Gram
  Percent Injected Dose/Gram, liver: 0.15 Percent Injected Dose/Gram
  Percent Injected Dose/Gram, muscle: 0.00 Percent Injected Dose/Gram
  Percent Injected Dose/Gram, spleen: 0.01 Percent Injected Dose/Gram
  Percent Injected Dose/Gram, tumor: 0.02 Percent Injected Dose/Gram
  Percent Injected Dose/Gram, uteri: 0.02 Percent Injected Dose/Gram
[2]; 48 hours
  Percent Injected Dose/Gram, blood: 0.03 Percent Injected Dose/Gram
  Percent Injected Dose/Gram, fat: 0.00 Percent Injected Dose/Gram
  Percent Injected Dose/Gram, kidney: 0.00 Percent Injected Dose/Gram
  Percent Injected Dose/Gram, liver: 0.08 Percent Injected Dose/Gram
  Percent Injected Dose/Gram, muscle: 0.00 Percent Injected Dose/Gram
  Percent Injected Dose/Gram, spleen: 0.00 Percent Injected Dose/Gram
  Percent Injected Dose/Gram, tumor: 0.00 Percent Injected Dose/Gram
  Percent Injected Dose/Gram, uteri: 0.00 Percent Injected Dose/Gram
[3]; 48 hours post-injection, uteri and tumors, subcutaneous MCF-7
  radioactivity in the uteri and tumors: no radioactivity defected
[3]; 10-12 hours
  Percent Injected Dose/Gram, blood: 0.16 Percent Injected Dose/Gram
  Percent Injected Dose/Gram, fat: 0.00 Percent Injected Dose/Gram
  Percent Injected Dose/Gram, kidney: 0.10 Percent Injected Dose/Gram
  Percent Injected Dose/Gram, liver: 0.55 Percent Injected Dose/Gram
  Percent Injected Dose/Gram, muscle: 0.00 Percent Injected Dose/Gram
  Percent Injected Dose/Gram, spleen: 0.05 Percent Injected Dose/Gram
  Percent Injected Dose/Gram, tumor: 0.09 Percent Injected Dose/Gram
  Percent Injected Dose/Gram, uteri: 0.38 Percent Injected Dose/Gram
[3]; 2 hours
  Percent Injected Dose/Gram, blood: 0.59 Percent Injected Dose/Gram
  Percent Injected Dose/Gram, fat: 0.88 Percent Injected Dose/Gram
  Percent Injected Dose/Gram, kidney: 0.64 Percent Injected Dose/Gram
  Percent Injected Dose/Gram, liver: 3.33 Percent Injected Dose/Gram
  Percent Injected Dose/Gram, muscle: 0.07 Percent Injected Dose/Gram
  Percent Injected Dose/Gram, spleen: 0.28 Percent Injected Dose/Gram
  Percent Injected Dose/Gram, tumor: 0.91 Percent Injected Dose/Gram
  Percent Injected Dose/Gram, uteri: 2.81 Percent Injected Dose/Gram
[3]; 6 hours
  Percent Injected Dose/Gram, blood: 0.58 Percent Injected Dose/Gram
  Percent Injected Dose/Gram, fat: 0.25 Percent Injected Dose/Gram
  Percent Injected Dose/Gram, kidney: 0.37 Percent Injected Dose/Gram
  Percent Injected Dose/Gram, liver: 1.93 Percent Injected Dose/Gram
  Percent Injected Dose/Gram, muscle: 0.05 Percent Injected Dose/Gram
  Percent Injected Dose/Gram, spleen: 0.25 Percent Injected Dose/Gram
  Percent Injected Dose/Gram, tumor: 0.41 Percent Injected Dose/Gram
  Percent Injected Dose/Gram, uteri: 1.02 Percent Injected Dose/Gram
[3]; 24 hours
  Percent Injected Dose/Gram, blood: 0.03 Percent Injected Dose/Gram
  Percent Injected Dose/Gram, fat: 0.00 Percent Injected Dose/Gram
  Percent Injected Dose/Gram, kidney: 0.00 Percent Injected Dose/Gram
  Percent Injected Dose/Gram, liver: 0.09 Percent Injected Dose/Gram
  Percent Injected Dose/Gram, muscle: 0.00 Percent Injected Dose/Gram
  Percent Injected Dose/Gram, spleen: 0.00 Percent Injected Dose/Gram
  Percent Injected Dose/Gram, tumor: 0.00 Percent Injected Dose/Gram
  Percent Injected Dose/Gram, uteri: 0.02 Percent Injected Dose/Gram
[3]; 48 hours
  Percent Injected Dose/Gram, blood: 0.01 Percent Injected Dose/Gram
  Percent Injected Dose/Gram, fat: 0.00 Percent Injected Dose/Gram
  Percent Injected Dose/Gram, kidney: 0.00 Percent Injected Dose/Gram
  Percent Injected Dose/Gram, liver: 0.06 Percent Injected Dose/Gram
  Percent Injected Dose/Gram, muscle: 0.00 Percent Injected Dose/Gram
  Percent Injected Dose/Gram, spleen: 0.00 Percent Injected Dose/Gram
  Percent Injected Dose/Gram, tumor: 0.00 Percent Injected Dose/Gram
  Percent Injected Dose/Gram, uteri: 0.00 Percent Injected Dose/Gram
[4]; 10-12 hours
  Tumor/Background Ratio (Tu/Bkg): 2.51 ± 1.40
[4]; 2 hours
  Tumor/Background Ratio (Tu/Bkg): 10.96
[4]; 6 hours
  Tumor/Background Ratio (Tu/Bkg): 6.23 ± 3.02
[4]; 24 hours
  Tumor/Background Ratio (Tu/Bkg): 0.85 ± 0.29
[4]; 48 hours
  Tumor/Background Ratio (Tu/Bkg): 0.08 ± 0.19

— patent publication US5427766A, “Radiolabeled steroids for use in radiochemical-guided surgery” (priority 1993, dated 1995)
